Data from patent publication US9376492B2, “Treatment of cancer” (Asclepiumm Limited, priority 2009, dated 2016).
“Also recorded” adds a separate entry of the source.

Columns and labels:
MDCK cells = test: Blocking EMT assay (HGF/SF-induced EMT); format: cell-based; settings: 2.5 ng/ml HGF/SF, 24 h
Description: Blocking EMT Assay: Antibodies or peptides were added to 10% sub-confluent MDCK cells cultured in standard medium with 2.5 ng/ml HGF/SF in 96-well plates for 24 h. EMT was induced by HGF/SF in MDCK cells without any antibody or peptide treatment. The effects of different antibodies and peptides in blocking EMT were investigated by adding different concentrations of them to 10% sub-confluent MDCK cells cultured in standard medium with 2.5 ng/ml HGF/SF.

[1] = test system: human breast cancer MCF7 cells; test: Cell invasion assay (Matrigel), MCF7; format: cell-based; settings: human breast cancer MCF7 cells in Matrigel
Description: Cell Invasion Assay: Growth Factor-Reduced Matrigel™ Matrix (BD, Becton Dickinson Biosciences, Bedford, Mass., USA) was thawed in the fridge one day prior to its use. The Matrigel matrix was mixed by pre-cooled pipettes to homogeneity on ice. Four μl of the cell suspension (1×10^6 cells/ml) in standard medium without (Control) or with 1 μl different concentrations of antibody or peptide was mixed with 95 μl of Matrigel matrix in a cold Eppendorf tube. After thorough mixing using cooled pipettes, 30 μl of the cells in the Matrigel mixture was added to 48-well plates. The plates were incubated at 37° C. in a CO2 incubator for 1 h to polymerize the droplet mixtures. 250 μl of standard medium was added to cover the cell/Matrigel droplet and incubated for several days. Blindly-selected cell invasion images were recorded in four areas within a cell/Matrigel droplet by a Nikon 4500 Coolpix digital camera under the microscope.

Sequence: EELSAAHTLV (listed as Homo sapiens) [Peptide 7]
- inhibition of EMT (MDCK cells): significantly blocked; also recorded: significantly inhibited
- inhibition of cell invasion ability [1]: significantly inhibited

Sequence: KINATDADEPNTLNSKISYR (listed as Homo sapiens) [Peptide 4]
- inhibition of EMT (MDCK cells): significantly blocked; also recorded: significantly inhibited
- inhibition of cell invasion ability [1]: significantly inhibited
